Data: article PMC12029898, “Cellular Metabolomics Reveals Differences in the Scope of Liver Protection Between Ammonium-Based Glycyrrhizinate and Magnesium Isoglycyrrhizinate” (Metabolites, 2025)
Like-named read-outs stand apart in the source and are kept apart here.

Experiments:
LO2 cells = experiment: Hepatocyte protection rate in APAP-induced LO2 cells (MTT); assay type: cell-based, human; settings: for liver protection rate: 16 mM APAP; for hepatocyte protection (therapeutic effect): 16 mM APAP, 200, 400 and 600 μM
Experimental: Assessment of hepatocyte-protective effects: Cells in the logarithmic growth phase were seeded onto a 96-well plate at a density of 4000 cells per well, followed by incubation at 37 °C in an atmosphere containing 5% CO2. After 24 h of incubation, cells were treated with 16 mM APAP, followed by the addition of MONO, DIAM, and MAGN at three escalating concentrations (200, 400, and 600 μM for each compound). The cell survival rate was quantitatively evaluated using MTT method. The protective efficacy of the compounds was then calculated employing the formula outlined below.(1) Hepatocytes protection rate=AGlycyrrhizinate−AAPAP/Anormal−AAPAP×1

[1] = Pharmacokinetics after oral gavage in rats (plasma, HPLC); assay type: in vivo, Sprague Dawley rats; settings: rat
From the text: Nine male Sprague Dawley rats, each weighing approximately 250 g ± 25 g, were meticulously selected as the experimental subjects (sourced from Beijing SPF Biotechnology Co., Ltd., (Beijing, China) SPF grade, licensed under SCXK (Jing) 2019-0010). The experimental protocol was approved by the Institutional Animal Care and Use Committee of Hebei Medical University and conformed to the Guide for Care and Use of Laboratory Animals (approval NO. 2023040). Prior to and throughout the experimental period, the rats were provided with unrestricted access to standard rodent chow and water. The housing facilities for these animals adhered strictly to the standards outlined by the International Association for the Evaluation and Certification of Laboratory Animal Care, ensuring optimal conditions for the animals’ wellbeing. The experimental feeding environment was maintained at a temperature of 22–24 °C, with a relative humidity of 50 ± 5%, and a 12-h light/dark cycle to mimic natural diurnal rhythms. The rats were randomly allocated into three distinct groups, with an equal distribution of three rats per group. MONO, DIAM, and MAGN were administered orally at a dose of 20 mg/kg. The amount administered was calculated as the contents of glycyrrhizinate or magnesium isoglycyrrhizinate. Each compound was dissolved in 0.5% carboxymethylcellulose sodium (CMC-Na) solution and delivered immediately to rats via gastric gavage. Blood samples of 0.2 mL were obtained at various time points post-administration (0.5, 1, 2, 4, 8, 12, 24, and 48 h) and centrifuged at 1500× g for 10 min at 4 °C, allowing for the separation of plasma, which was collected and stored at −20 °C for subsequent analysis.
Fifty microliters (50 μL) of plasma was obtained and spiked with 10 μL of dipyridamole solution as an internal standard. Subsequently, 100 μL of acetonitrile was added to precipitate the proteins, followed by vortex mixing. The mixture was centrifuged at 6000× g for 10 min at 4 °C. The resulting precipitate was discarded, and the supernatant was evaporated to dryness under a nitrogen stream at 60 °C. The residual precipitate was redissolved in 200 μL of mobile phase, vortexed for 5 min, and sonicated for 30 s. Following this, the solution was centrifuged again at 6000× g for 10 min at 4 °C. Then, 10 μL of the supernatant was injected and the chromatogram was recorded for analysis.
HPLC was employed using the Agilent 1200 series system (Agilent Technologies, Wilmington, DE, USA) with Agilent Chemstation LC B.04.03 Software. The separation was on a Venusil MP C18(2) chromatographic column (150 × 4.6 mm, 5 μm, Agela Technologies, Tianjin, China) based on the United States Pharmacopeia with adjustments performed. Isocratic elution with a mixture of 40 volumes of acetonitrile and 60 volumes of water (containing 0.5% acetic acid) was used. The flow rate and temperature were 1.0 mL/min and 40 °C, respectively. A volume of 10 μL of the sample was injected under 254 nm for analyses and with three repetitions for each test (n = 3). All the pharmacokinetic data were calculated by Drug and Statistics (DAS) 2.0 software (Mathematical Pharmacology Professional Committee of China, Shanghai, China) and presented as mean ± SD. The main parameters such as the area under the curve (AUC), the maximum plasma concentration (Cmax), the time to Cmax (Tmax), and elimination half-life (t1/2) were tabulated.

half-life ([1]; male, Sprague Dawley, po, 20 mg/kg, n = 3) | AUC(0-t) ([1]; male, Sprague Dawley, po, 20 mg/kg, n = 3, read-out: AUC0-t) | Cmax ([1]; male, Sprague Dawley, po, 20 mg/kg, n = 3, read-out: Cmax) | Tmax ([1]; male, Sprague Dawley, po, 20 mg/kg, n = 3, read-out: Tmax) | SMILES | liver protection rate (LO2 cells; 400 μM) | liver protection rate (LO2 cells; 600 μM) | hepatocyte protection (therapeutic effect) (LO2 cells) | Tmax ([1]; oral 20 mg/kg, n = 3) | AUC(0-t) ([1]; oral 20 mg/kg, n = 3) | Cmax ([1]; oral 20 mg/kg, n = 3) | t1/2 ([1]; oral 20 mg/kg, n = 3)
23.7 ± 2.44 h | 552 ± 120 µg·h/mL | 23200 ± 4180 ng/mL | 9.66 h | CC1(C)[C@@H](O[C@H]2O[C@H](C(=O)O)[C@@H](O)[C@H](O)[C@H]2O[C@@H]2O[C@H](C(=O)O)[C@@H](O)[C@H](O)[C@H]2O)CC[C@]2(C)[C@H]3C(=O)C=C4[C@H]5C[C@@](C)(C(=O)O)CC[C@]5(C)CC[C@@]4(C)[C@]3(C)CC[C@@H]12 [MAGN, magnesium isoglycyrrhizinate] | comparable liver protection rates, which were statistically indistinguishable and surpassed that of MONO | superior protective rate compared to DIAM | concentration-dependent therapeutic effects | 9.33 ± 2.31 h |  |  | 
 |  |  |  | CC1(C)[C@@H](O[C@H]2O[C@H](C(=O)O)[C@@H](O)[C@H](O)[C@H]2O[C@@H]2O[C@H](C(=O)O)[C@@H](O)[C@H](O)[C@H]2O)CC[C@]2(C)[C@H]3C(=O)C=C4[C@@H]5C[C@@](C)(C(=O)O)CC[C@]5(C)CC[C@@]4(C)[C@]3(C)CC[C@@H]12 [DIAM, diammonium glycyrrhizinate] | comparable liver protection rates, which were statistically indistinguishable and surpassed that of MONO |  | concentration-dependent therapeutic effects | 6 ± 0 h | 358.04 ± 56.36 µg·h/mL | 18860 ± 2030 ng/mL | 11.57 ± 1.29 h
